The text below walks through data of patent US12679878B2, “CRF2 receptor agonists and their use in therapy” (SANOFI, priority 2020, dated 2026).

The experiment deals with T1, human CRF2α receptor (Homo sapiens, UniProt Q13324).
T1 construct: expressed in transfected cells; host or cells: TeloHEAC
T1 sequence (Q13324 1-411): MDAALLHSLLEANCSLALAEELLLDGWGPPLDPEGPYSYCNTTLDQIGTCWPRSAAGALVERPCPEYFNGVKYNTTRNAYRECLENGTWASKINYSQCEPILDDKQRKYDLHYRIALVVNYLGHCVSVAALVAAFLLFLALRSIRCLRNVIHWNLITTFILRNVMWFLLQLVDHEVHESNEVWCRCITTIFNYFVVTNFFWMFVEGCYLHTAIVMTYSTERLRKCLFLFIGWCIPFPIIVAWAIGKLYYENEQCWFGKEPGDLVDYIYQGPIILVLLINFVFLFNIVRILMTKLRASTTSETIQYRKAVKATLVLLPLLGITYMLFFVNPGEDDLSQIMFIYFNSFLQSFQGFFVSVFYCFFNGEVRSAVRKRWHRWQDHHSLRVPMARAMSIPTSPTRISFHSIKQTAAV
As to the kind of experiment: cAMP agonism at human CRF2 α receptor in TeloHEAC cells (Example 7). Particulars: cAMP HTRF, TeloHEAC cells stably expressing human CRF2 α, 0% HSA; read-out: EC50 [nM], 0% HSA. The class given is cell-based. A digest of the protocol: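 Thawed frozen stably transfected cells in HBSS/20 mM HEPES (0% or 0.1% HSA) plus 2 mM IBMX were exposed to compound at 2000 cells/well for 30 min at room temperature. Intracellular cAMP was read by HTRF (665/620 nm ratio) after 1 h lysis; EC50 was derived with 1000 nM urocortin 2 set as 100%.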
(TR-FRET usually uses a lanthanide donor and a delayed reading to cut background.)

Starred links: 1 amine or outer side, 2 acyl side, 3 side chain; linkers in the order of their positions; H or OH if unused. Non-standard residues stand in square brackets, D forms with d. Residues, ends and D or L forms follow the SMILES beside them. Groups on a side chain read outwards from the residue. *: point of attachment. C20 diacid = O=C(O)CCCCCCCCCCCCCCCCCCC(=O)*; C18 diacid = O=C(O)CCCCCCCCCCCCCCCCC(=O)*; γGlu = O=C(O)[C@H](CCC(=O)[*:2])N[*:1]; AEEA = NCCOCCOCC(=O)O; Aib = CC(C)(N)C(=O)O

The term EC50 denotes the midpoint of the concentration-response curve. Consider `CC[C@H](C)[C@H](NC(=O)[C@H](CCC(N)=O)NC(=O)[C@H](CCCCNC(=O)COCCOCCNC(=O)COCCOCCNC(=O)CC[C@H](NC(=O)CCCCCCCCCCCCCCCCC(=O)O)C(=O)O)NC(=O)[C@H](CC(C)C)NC(=O)CNC(=O)[C@@H](NC(=O)[C@@H]1CCCN1C(=O)[C@@H](NC(=O)[C@H](CC(=O)O)NC(=O)[C@H](CC(C)C)NC(=O)[C@H](CO)NC(=O)[C@H](CC(C)C)NC(=O)[C@@H](NC(=O)[C@@H](N)Cc1ccccc1)[C@@H](C)O)C(C)C)[C@@H](C)CC)C(=O)N[C@@H](CC(C)C)C(=O)N[C@@H](CC(C)C)C(=O)N[C@@H](CCCCN)C(=O)N[C@@H](CCC(N)=O)C(=O)N[C@@H](CCC(N)=O)C(=O)N[C@@H](CCCCN)C(=O)N[C@@H](CCC(N)=O)C(=O)N[C@@H](CCCCN)C(=O)N[C@@H](CCCCN)C(=O)N[C@@H](CCC(=O)O)C(=O)N[C@@H](CCCNC(=N)N)C(=O)N[C@@H](CCC(N)=O)C(=O)N[C@@H](CCCCN)C(=O)N[C@@H](C)C(=O)N[C@@H](CCC(=O)O)C(=O)N[C@H](C(=O)N[C@@H](CC(N)=O)C(=O)N[C@H](C(=O)N[C@@H](CCC(N)=O)C(=O)N[C@@H](CC(C)C)C(=O)N[C@@H](CC(C)C)C(=O)N[C@@H](CCC(=O)O)C(=O)N[C@@H](CCCNC(=N)N)C(=O)N[C@H](C(N)=O)C(C)C)C(C)C)[C@@H](C)O` [compound 57] (H-FTLSLDVPIGLK([AEEA-AEEA-γGlu-C18 diacid])QILLKQQKQKKERQKAETNVQLLERV-NH2; N-terminus assumed), for which the half-maximal effective concentration (EC50) was 38.8 nM.

`CC[C@H](C)[C@H](NC(=O)[C@H](CCC(N)=O)NC(=O)[C@H](CCCCNC(=O)COCCOCCNC(=O)COCCOCCNC(=O)CC[C@H](NC(=O)CCCCCCCCCCCCCCCCCCC(=O)O)C(=O)O)NC(=O)[C@@H](NC(=O)[C@H](CCCCN)NC(=O)[C@@H](NC(=O)[C@@H]1CCCN1C(=O)[C@@H](NC(=O)[C@H](CC(=O)O)NC(=O)[C@H](CC(C)C)NC(=O)[C@H](CO)NC(=O)[C@H](CC(C)C)NC(=O)[C@@H](NC(=O)[C@@H](N)Cc1ccccc1)[C@@H](C)O)C(C)C)[C@@H](C)O)[C@@H](C)CC)C(=O)N[C@@H](CC(C)C)C(=O)N[C@@H](CC(C)C)C(=O)N[C@@H](CCCCN)C(=O)N[C@@H](CCC(N)=O)C(=O)N[C@@H](CCC(N)=O)C(=O)N[C@@H](CCCCN)C(=O)N[C@@H](CCC(N)=O)C(=O)N[C@@H](CCCCN)C(=O)N[C@@H](CCCCN)C(=O)N[C@@H](CCC(=O)O)C(=O)N[C@@H](CCCNC(=N)N)C(=O)N[C@@H](CCC(N)=O)C(=O)N[C@@H](CCCCN)C(=O)N[C@@H](C)C(=O)N[C@@H](CCC(=O)O)C(=O)N[C@H](C(=O)N[C@@H](CC(N)=O)C(=O)N[C@H](C(=O)N[C@@H](CCC(N)=O)C(=O)N[C@@H](CC(C)C)C(=O)N[C@@H](CC(C)C)C(=O)N[C@@H](CCC(=O)O)C(=O)N[C@@H](CCCNC(=N)N)C(=O)N[C@H](C(N)=O)C(C)C)C(C)C)[C@@H](C)O` [compound 64] (H-FTLSLDVPTKIK([AEEA-AEEA-γGlu-C20 diacid])QILLKQQKQKKERQKAETNVQLLERV-NH2): the EC50 came to 13.2 nM.

Turning to `CC[C@H](C)[C@H](NC(=O)[C@H](CCC(N)=O)NC(=O)[C@H](CCCCNC(=O)COCCOCCNC(=O)COCCOCCNC(=O)CC[C@H](NC(=O)CCCCCCCCCCCCCCCCCCC(=O)O)C(=O)O)NC(=O)[C@H](CC(C)C)NC(=O)CNC(=O)[C@@H](NC(=O)[C@@H]1CCCN1C(=O)[C@@H](NC(=O)[C@H](CC(=O)O)NC(=O)[C@H](CC(C)C)NC(=O)[C@H](CO)NC(=O)[C@H](CC(C)C)NC(=O)[C@@H](NC(=O)[C@@H](N)Cc1ccccc1)[C@@H](C)O)C(C)C)[C@@H](C)CC)C(=O)N[C@@H](CC(C)C)C(=O)N[C@@H](CC(C)C)C(=O)N[C@@H](CCCCN)C(=O)N[C@@H](CCC(N)=O)C(=O)N[C@@H](CCC(N)=O)C(=O)N[C@@H](CCCCN)C(=O)N[C@@H](CCC(N)=O)C(=O)N[C@@H](CCCCN)C(=O)N[C@@H](CCCCN)C(=O)N[C@@H](CCC(=O)O)C(=O)N[C@@H](CCCNC(=N)N)C(=O)N[C@@H](CCC(N)=O)C(=O)N[C@@H](CCC(N)=O)C(=O)N[C@@H](C)C(=O)N[C@@H](CCC(=O)O)C(=O)N[C@H](C(=O)N[C@@H](CC(N)=O)C(=O)N[C@H](C(=O)N[C@@H](CCC(N)=O)C(=O)N[C@@H](CC(C)C)C(=O)N[C@@H](CC(C)C)C(=O)N[C@@H](CCC(=O)O)C(=O)N[C@@H](CCCNC(=N)N)C(=O)N[C@H](C(N)=O)C(C)C)C(C)C)[C@@H](C)O` [compound 65] (H-FTLSLDVPIGLK([AEEA-AEEA-γGlu-C20 diacid])QILLKQQKQKKERQQAETNVQLLERV-NH2), the EC50 was determined as 9.31 nM.

As for `CC[C@H](C)[C@H](NC(=O)[C@H](CCC(N)=O)NC(=O)[C@H](CCCCNC(=O)COCCOCCNC(=O)COCCOCCNC(=O)CC[C@H](NC(=O)CCCCCCCCCCCCCCCCCCC(=O)O)C(=O)O)NC(=O)[C@H](CC(C)C)NC(=O)CNC(=O)[C@@H](NC(=O)[C@@H]1CCCN1C(=O)[C@@H](NC(=O)[C@H](CC(=O)O)NC(=O)[C@H](CC(C)C)NC(=O)[C@H](CO)NC(=O)[C@H](CC(C)C)NC(=O)[C@@H](NC(=O)[C@@H](N)Cc1ccccc1)[C@@H](C)O)C(C)C)[C@@H](C)CC)C(=O)N[C@@H](CC(C)C)C(=O)N[C@@H](CC(C)C)C(=O)N[C@@H](CCCCN)C(=O)N[C@@H](CCC(N)=O)C(=O)N[C@@H](CCC(N)=O)C(=O)N[C@@H](CCCCN)C(=O)N[C@@H](CCC(N)=O)C(=O)N[C@@H](CCCCN)C(=O)N[C@@H](CCCCN)C(=O)N[C@@H](CCC(=O)O)C(=O)N[C@@H](CCCNC(=N)N)C(=O)N[C@@H](CCC(N)=O)C(=O)N[C@@H](CCCCN)C(=O)N[C@@H](C)C(=O)N[C@@H](CCC(=O)O)C(=O)N[C@H](C(=O)N[C@@H](CC(N)=O)C(=O)N[C@H](C(=O)N[C@@H](CCC(N)=O)C(=O)N[C@@H](CC(C)C)C(=O)N[C@@H](CC(C)C)C(=O)N[C@@H](CCC(=O)O)C(=O)N[C@@H](CCCNC(=N)N)C(=O)N[C@H](C(N)=O)C(C)C)C(C)C)[C@@H](C)O` [compound 66] (H-FTLSLDVPIGLK([AEEA-AEEA-γGlu-C20 diacid])QILLKQQKQKKERQKAETNVQLLERV-NH2; N-terminus assumed), the 50% effective concentration (EC50) was 25.4 nM.

Turning to `CC[C@H](C)[C@H](N)C(=O)N[C@H](C(=O)N[C@@H](CC(C)C)C(=O)N[C@@H](CO)C(=O)N[C@@H](CC(C)C)C(=O)N[C@@H](CC(=O)O)C(=O)N[C@H](C(=O)N1CCC[C@H]1C(=O)N[C@H](C(=O)N[C@@H](CCCCN)C(=O)N[C@@H](CC(C)C)C(=O)N[C@@H](CCCCNC(=O)COCCOCCNC(=O)COCCOCCNC(=O)CC[C@H](NC(=O)CCCCCCCCCCCCCCCCC(=O)O)C(=O)O)C(=O)N[C@@H](CCCCN)C(=O)NC(C)(C)C(=O)N[C@@H](CC(C)C)C(=O)N[C@@H](CC(C)C)C(=O)N[C@@H](CCC(=O)O)C(=O)N[C@@H](CCC(N)=O)C(=O)N[C@@H](CCC(=O)O)C(=O)N[C@@H](CCCNC(=N)N)C(=O)N[C@@H](CCC(N)=O)C(=O)N[C@@H](CCCCN)C(=O)N[C@@H](CCCCN)C(=O)N[C@@H](CCC(N)=O)C(=O)N[C@@H](CCCNC(=N)N)C(=O)N[C@@H](CCC(=O)O)C(=O)N[C@@H](CCC(N)=O)C(=O)N[C@@H](C)C(=O)N[C@@H](CCC(=O)O)C(=O)N[C@H](C(=O)N[C@@H](CC(N)=O)C(=O)NC(C)(C)C(=O)N[C@@H](CCC(N)=O)C(=O)N[C@H](C(=O)N[C@@H](CC(C)C)C(=O)N[C@@H](C)C(=O)N[C@@H](CCC(N)=O)C(=O)N[C@H](C(N)=O)C(C)C)[C@@H](C)CC)[C@@H](C)O)[C@@H](C)CC)C(C)C)C(C)C` [compound 71] (H-IVLSLDVPIKLK([AEEA-AEEA-γGlu-C18 diacid])K[Aib]LLEQERQKKQREQAETN[Aib]QILAQV-NH2; N-terminus assumed), the concentration for a half-maximal effect (EC50) came to 3.15 nM.

Turning to `CC[C@H](C)[C@H](N)C(=O)N[C@H](C(=O)N[C@@H](CC(C)C)C(=O)N[C@@H](CO)C(=O)N[C@@H](CC(C)C)C(=O)N[C@@H](CC(=O)O)C(=O)N[C@H](C(=O)N1CCC[C@H]1C(=O)N[C@H](C(=O)N[C@@H](CCCCN)C(=O)N[C@@H](CC(C)C)C(=O)N[C@@H](CCCCNC(=O)COCCOCCNC(=O)COCCOCCNC(=O)CC[C@H](NC(=O)CCCCCCCCCCCCCCCCC(=O)O)C(=O)O)C(=O)N[C@@H](CCC(N)=O)C(=O)N[C@H](C(=O)N[C@@H](CC(C)C)C(=O)N[C@@H](CC(C)C)C(=O)N[C@@H](CCC(=O)O)C(=O)N[C@@H](CCC(N)=O)C(=O)N[C@@H](CCC(=O)O)C(=O)N[C@@H](CCCNC(=N)N)C(=O)N[C@@H](CCC(N)=O)C(=O)N[C@@H](CCCCN)C(=O)N[C@@H](CCCCN)C(=O)N[C@@H](CCC(N)=O)C(=O)N[C@@H](CCCNC(=N)N)C(=O)N[C@@H](CCC(N)=O)C(=O)N[C@@H](CCCCN)C(=O)N[C@@H](C)C(=O)N[C@@H](CCC(=O)O)C(=O)N[C@H](C(=O)N[C@@H](CC(N)=O)C(=O)NC(C)(C)C(=O)N[C@@H](CCC(N)=O)C(=O)N[C@H](C(=O)N[C@@H](CC(C)C)C(=O)N[C@@H](C)C(=O)N[C@@H](CCC(N)=O)C(=O)N[C@H](C(N)=O)C(C)C)[C@@H](C)CC)[C@@H](C)O)[C@@H](C)CC)[C@@H](C)CC)C(C)C)C(C)C` [compound 73] (H-IVLSLDVPIKLK([AEEA-AEEA-γGlu-C18 diacid])QILLEQERQKKQRQKAETN[Aib]QILAQV-NH2), the concentration giving a half-maximal response (EC50) was 2.6 nM.
